Experimental data reported in US20090275656A1, “Medicinal Compositions of Salts, Chelates and/or Free Acids of Alpha Hydroxyl Organic Acids and Related Processes and Methods” (priority 2005, published 2009).
Entries after “also recorded” stand apart in the source; their conditions may differ. Where two headings read alike, the source gives them in different places.

How the values were obtained:
[1] = system: NF-kB; test: NF-kB inhibition in Jurkat T cells; format: cell-based, human; details: FIG. 4
Procedure: FIG. 4 illustrates the evaluation of NF-kB in Jurkat T cells as previously described in detail after treatment with quinic acid (H+), quinic aid ammonium chelate neutralized to pH=7.5 or the equivalent amount of […] (NH4Cl).
Independent inhibition of NF-kB by either QA or NH4+ ions. Human Jurkat T cells were incubated together with either QA, QA-NH4+ or NH4Cl, and the degree of inhibition of NF-kB evaluated as described elsewhere. See, FIG. 4. Parra E, et al., 1997. Mol Cell Biol 17:1324-23; Akesson, C., et al., Int. Immunopharmacol., 5(1):219 (2005).

[2] = Safety, toxicity and efficacy (Table 2), human; format: in vivo; details: oral, highest dose tested 70 mg/kg, University of Lund human volunteer n = 2
Excerpt: Quinmax™ is substantially pure quinic acid neutralized with aqueous ammonia to pH=7.5. As a result, in water ammonium ions are also generated which in themselves have potent biological functions. Ammonium ions, for example, stimulate protein synthesis in the GI tract, neutralize lysosomal vesicles thus preventing oxidative stress DNA damage, and inhibit NF-kB mediated inflammatory responses. These are examples of additional biological properties of Quinmax™, which is devoid of any added-on toxicity. […] Jacobsen, L B, Richardson, C L, Floss, H G. 1978. Shikimic acid and quinic acid are not mutagenic in the Ames assay. Lloydia 41(5): 450-452. Here the most important consideration is to compare the highest doses of quinic acid exposure to those shown to have efficacy in various animal models. It is quite apparent that quinic acid doses that far exceed the known efficacious doses of quinic acid have been used in the various animal model systems.
Here the most important consideration is to compare the highest doses of quinic acid exposure to those shown to have efficacy in various animal models. It is quite apparent that quinic acid doses that far exceed the known efficacious doses of quinic acid have been used in the various animal model systems. […] Moreover, Quinmax™ is quinic acid neutralized with aqueous ammonia to pH=7.5. […]

[3] = rat, oral; Sheng et al 2005; cited from earlier work
[4] = human, in vivo, po
Procedure: Additional oral administration of high dose QA was carried out after ingestion of 6 gm Quinmax™ in human volunteers at the University of Lund. The purpose of this study was to determine if significant metabolism of QA to hippuric acid occurred when QA was administered in the ammonia chelated form as Quinmax™, a 1:1.6 molar ratio of QA to ammonia ions.
A apparently healthy volunteer drank 6 gm Quinmax™ dissolved in 300 ml water over a 15 min period, and then about 40 ml of peripheral blood (4-red topped vacutainers) were allowed to clot at room temperature to prepare serum samples by centrifugation. The serum sampling points were 0.7 hr, 1.7 hr, 2.7 hr, 3.7 hr, 10.5 hr 12.5 hr, 22 hr, 28 hr and 44 hr. 30 ml serum samples were precipitated with 50% ethanol, taken to dryness under a stream of air, and redissolved in 1 ml of methanol for simultaneous HPLC analysis of quinic acid and hippuric acid.
First to determine when peak serum concentrations of QA occurred and how long they would remain detectable.

[5] = system: C57BL/6 mouse spleen cells; test: Growth arrest of spleen cells cultured with mitogen Con A (thymidine incorporation); format: cell-based; details: 48 hours
Procedure: Growth of spleen cells was evaluated in response to the mitogen Con A (2.5 μg/ml) after 48 hours by radioactive thymidine incorporation. Comparison is made at doses in mg/ml for inhibiting 25%, 50% and 90% of the growth of spleen cells; i.e. IC dose values.
Growth of spleen cells was evaluated in response to the mitogen Con A (2.5 μg/ml) after 48 hours by radioactive thymidine incorporation. Comparison is made at concentrations in mg/ml for inhibiting 25%, 50% and 90% of the growth of spleen cells; IC values.
Comparison is made at doses in mg/ml for inhibiting 25%, 50% and 90% of the growth of spleen cells; IC values.
For the study of Citrimix as the calcium/potassium alpha hydroxy citric acid chelate compared to the ammonia chelate of hydroxy citric acid (Nu-Citrimix), inhibition growth of primary spleen cells after in vitro exposure in microtiter cell culture for 48 hours in the presence of mitogen (Con A, 2 ug/ml), was the bioassay procedure used (Akesson C., Lindgren H., Pero R. W., Leanderson T., Ivars F., “An extract of Uncaria Tomentosa inhibiting cell division and NF-kB activity without inducing cell death,” International Immunopharm 3:1889-1900, 2003).

[6] = system: DNA repair; test: DNA repair enhancement in vivo
Excerpt: The discovery began in trying to explain the biological activity of a hot water extract of Cat's Claw bark, Uncaria tomentosa, called C-Med-100. […] After this initial biological characterization, the applicant has set forth to identify the natural product behind DNA repair enhancement as a potential anti-aging therapy. A series of chemical studies have led scientists to first identify carboxy alkyl esters (CAEs) as the bioactives and then it was followed by quinic acid esters (QAEs) being identified as the only bioactive CAEs in cat's claw water extracts. […] bioactive both in vitro and in vivo. […] However, quinic acid is present in water extracts of Cat's Claw as […] in effect in a pro-metabolite form since the QAEs would be hydrolyzed to quinic acid in the gastrointestinal tract.

[7] = system: Rat white blood cells (WBC); test: DNA damage recovery in the rat after DXR treatment, white blood cell count; format: in vivo; details: for Prevention of cell death after exposure to DNA damaging agent DXR: DXR treatment, WBC after 15 days
Excerpt: White blood cell (WBC) growth after 15 days estimated as 10^12WBC/liter blood. DXR=doxorubicin DNA damaging agent.
(§1) Rat white blood cells (WBC) or mouse spleen WBC were increased in vivo after quinic acid oral administration either by gavage or in drinking water from 7.2 to >8.2×10^6 cells/ml or 6.2 to 8.3×10^9 cells/ml, respectively. […] If extrapolated into a lifespan which is logically reasonable, then living to an average age of 90 years would be increased to 112 years by ingesting optimal amounts of quinic acid during one's lifetime.

[8] = system: human HL-60 leukemic cells; test: In vitro growth inhibition of cultured HL-60 cells by quinic acid salts/chelates (MTT); format: cell-based; details: 72 hr, concentrations up to 3000 μg/ml
Excerpt: FIG. 1 illustrates in vitro growth inhibition expressed as IC50 values (i.e. the dose that inhibits 50% of growth) induced by various quinic acid salts, chelates or salts/chelates (molecular structure at saturation undetermined) in cultured HL-60 cells. QA-H+=free quinic acid (H+), QA-NH4.+=quinic acid ammonium chelate, QA-Na+=quinic acid sodium salt, QA-K+=quinic acid potaasium chelate, QA-Zn++=quinic acid zinc salt/chelate, QA-Li+=quinic acid lithium salt/chelate, Ca++=quinic acid calcium chelate, quinic acid histidine salt/chaelate=QA-histidine, quinic acid lysine salt/chelate=QA-lysine, and C-Med-100=non pH adjusted water extract.
For the study involving quinic acid salts and chelates (FIG. 1) quinic acid was purchased from Sigma (>99%). QA salts/chelates were synthesized by neutralization to pH=7.5 with the appropriate base, i.e., NH4OH, NaOH, Ca(OH)2, Zn(OH)2, LiOH, KOH, lysine or histidine. Serial dilutions of test compounds were added to human HL-60 leukemic cells (0.05×10^6 cells/ml) in 96-well, flat bottomed microtiter plates to give final concentrations in the cultures up to 3000 μg/ml. The plates were incubated for 72 hr at 37 C, pulsed with 20 μl MTT (5 mg/ml) for 3 hr, and the color estimated spectrophotometrically at 540 nm as described previously. (Schweitzer, C M et al. Spectrophotometric determination of clonogenic capacity of leukemic cells in semisolid microtiter culture systems. Experimental Hematology 21: 573-578, 1993). IC50 values were calculated and compared based on the live/dead ratio of cells.

[9] = human, oral, highest dose tested 90 mg/kg; Beer et al 1951, Adamson et al 1970; cited from earlier work
[10] = mouse, drink water; Akesson et al 2005; cited from earlier work
[11] = 2700 μg/ml; Jacobsen et al 1978; cited from earlier work
[12] = lower animals, oral, highest dose tested 300-600 mg/kg; Adamson et al 1970; cited from earlier work
[13] = system: mouse spleen WBC; test: Mouse spleen WBC after quinic acid oral administration; format: in vivo; details: oral (gavage or drinking water), increased from 6.2
Excerpt: as §1

Row | Structure (SMILES) | NF-kB inhibition (comparison in words) [1] | Efficacy (efficacious dose) [3] | IC25 growth of spleen cells (comparison in words) [5] | IC50 growth of spleen cells (comparison in words) [5] | IC90 growth of spleen cells (comparison in words) [5] | DNA repair enhancing activity (comparison in words) [6] | Prevention of cell death after exposure to DNA damaging agent DXR ([7]; rat) | further results
1 | N.O=C(O)[C@]1(O)C[C@@H](O)[C@@H](O)[C@H](O)C1 [Quinmax™, quinic acid ammonium chelate] | enhanced NF-kB inhibition over quinic acid (H+) | ≦200 mg/kg | dramatically lowering the IC25, IC50 and IC90 values compared to quinic acid (H+) | dramatically lowering the IC25, IC50 and IC90 values compared to quinic acid (H+) | dramatically lowering the IC25, IC50 and IC90 values compared to quinic acid (H+) | as efficacious as Cat's Claw water extracts such as C-Med-100 | prevent cell death | Toxicity [2]: None; Time during which hippuric acid could be measured in serum [4]: 3.7 to 12.5 h; Time of peak serum concentrations of QA [4]: around 10.5 hr; IC50 growth inhibition of HL-60 cells (comparison in words) ([8]; FIG. 1, listed as QA-NH4+): more effective than known salts such as QA-Na+; IC50 growth inhibition of HL-60 cells (comparison in words) ([8]; FIG. 1, listed as QA-NH4+ chelate): much more biologically effective than any other salt or chelate; also recorded: as efficacious as the cat's claw water extract (C-Med-100)
2 | O=C(O)[C@]1(O)C[C@@H](O)[C@@H](O)[C@H](O)C1 [Quinic acid] | – | ≦200 mg/kg | – | – | – | as much DNA repair enhancing activity in vivo as did the QAEs | prevent cell death | Toxicity [9]: None; Efficacy (efficacious dose) [10]: 250 mg/kg; Toxicity evaluated by mutagenicity in the Ames Assay [11]: did not demonstrate any toxicity; Toxicity [12]: None; Mouse spleen WBC after oral administration [13]: 8.3 ×10^9 cells/ml; Increase in the protection of the DNA from becoming damaged and killing the cells ([7]; calculated from rat WBC and mouse spleen WBC increases): 13-25%; Rat white blood cells (WBC) after oral administration ([7]; rat, oral (gavage or drinking water), increased from 7.2): > 8.2 ×10^6 cells/ml
3 | Cl.N [NH4Cl, reference compound] | as effective as the quinic acid NH4+ chelate | – | comparable to the quinic acid ammonium chelate | comparable to the quinic acid ammonium chelate | comparable to the quinic acid ammonium chelate | – | – | –
4 | O=C([O-])C1(O)CC(O)C(O)C(O)C1.O=C([O-])C1(O)CC(O)C(O)C(O)C1.[Ca+2] (stereo not drawn) [QA-Ca++, quinic acid calcium chelate] | – | – | – | – | – | – | – | IC50 growth inhibition of HL-60 cells (comparison in words) ([8]; FIG. 1): more effective than known salts such as QA-Na+
